From US10947234B2, “PRMT5 inhibitors” (Merck Sharp & Dohme Corp., priority 2017, dated 2021)
Read-outs that look alike come from different tables or passages of the source.

Key:
[1] = target: Full-length (FL)-PRMT5-MEP50 enzyme complex (Homo sapiens (Human), UniProt O14744); assay: PRMT5-MEP50 Enzyme Methylation Assay; type: biochemical; conditions: biotinylated H4R3(Me1) peptide, 15 μM SAM, top compound concentration 100000 nM
Procedure: PRMT5-MEP50 Enzyme Methylation Assay
PRMT5/MEP50 biochemical assay is a direct measurement of the methylation activity of the enzyme complex on a short peptide substrate derived from the N-terminus of H4 histone. Methylation experiment is performed with recombinant protein. The assessment of inhibitory effect (IC50) of small molecules is measured by the effectiveness of the compounds to inhibit this reaction.
To each well of a white ProxiPlus 384 well-plate, 100 nL of compound (1% DMSO in final assay volume of 10 μL) was dispensed, followed by the addition of 8 μL of 1× assay buffer (50 mM Bicine pH 8.0, 1 mM DTT, 0.004% Tween20, 0.01% BSA) containing 0.5 nM of Full-length (FL)-PRMT5-MEP50 enzyme complex (recombinant proteins from baculovirus-transfected Sf21 cells: FL-PRMT5; MW=[…] and FL-MEP50; MW=38614). Plates were sealed and placed in a 37° C. humidified chamber for 30 minutes pre-incubation with compounds. Subsequently, each reaction was initiated by the addition of 2 μL 1× assay buffer containing 75 nM biotinylated H4R3(Me1) peptide, and 15 μM S-(5′-Adenosyl)-L-Methionine Chloride (SAM). The final reaction in each well of 10 μL consists of 0.5 nM PRMT5-MEP50, 75 nM biotinylated-peptide, and 15 μM. Methylation reactions were allowed to proceed for 150 minutes in a sealed plate at 37° C. Reactions were immediately quenched by the addition of 1 μL of 10% formic acid. Plates were then frozen and shipped to SAMDI™ Tech Inc. to determine the percent conversion from […]. IC50 values were determined by 7 parameters biphasic fit model plotting the percent product conversion vs. (Log10) compound concentrations.

PRMT5 = PRMT5 (Homo sapiens (Human), UniProt O14744); assay: PRMT5 Cell Target Engagement (TE) Assay; type: cell-based; conditions: MCF-7 cells, 3 days treatment, nuclear SDMA by high content imaging; top compound concentration 10000 nM
Chain of PRMT5 (O14744 whole entry): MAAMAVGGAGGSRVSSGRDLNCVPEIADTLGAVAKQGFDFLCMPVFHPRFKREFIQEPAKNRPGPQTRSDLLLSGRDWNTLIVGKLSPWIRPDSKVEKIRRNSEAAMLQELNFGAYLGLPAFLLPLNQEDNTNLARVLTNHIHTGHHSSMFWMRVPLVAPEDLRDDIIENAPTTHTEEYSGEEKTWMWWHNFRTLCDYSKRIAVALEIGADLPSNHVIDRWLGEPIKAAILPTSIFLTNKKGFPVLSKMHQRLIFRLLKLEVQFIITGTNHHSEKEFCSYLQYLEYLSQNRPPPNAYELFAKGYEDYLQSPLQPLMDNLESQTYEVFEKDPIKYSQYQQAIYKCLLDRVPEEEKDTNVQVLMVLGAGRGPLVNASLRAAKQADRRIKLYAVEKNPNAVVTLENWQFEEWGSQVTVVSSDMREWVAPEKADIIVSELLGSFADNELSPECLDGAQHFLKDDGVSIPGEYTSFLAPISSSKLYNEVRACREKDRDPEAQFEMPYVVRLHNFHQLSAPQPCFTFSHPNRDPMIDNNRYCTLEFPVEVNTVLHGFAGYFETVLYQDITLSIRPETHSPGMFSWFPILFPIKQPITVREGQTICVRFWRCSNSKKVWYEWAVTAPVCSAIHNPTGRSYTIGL
Chain of PRMT5 (Q9BQA1 whole entry partner): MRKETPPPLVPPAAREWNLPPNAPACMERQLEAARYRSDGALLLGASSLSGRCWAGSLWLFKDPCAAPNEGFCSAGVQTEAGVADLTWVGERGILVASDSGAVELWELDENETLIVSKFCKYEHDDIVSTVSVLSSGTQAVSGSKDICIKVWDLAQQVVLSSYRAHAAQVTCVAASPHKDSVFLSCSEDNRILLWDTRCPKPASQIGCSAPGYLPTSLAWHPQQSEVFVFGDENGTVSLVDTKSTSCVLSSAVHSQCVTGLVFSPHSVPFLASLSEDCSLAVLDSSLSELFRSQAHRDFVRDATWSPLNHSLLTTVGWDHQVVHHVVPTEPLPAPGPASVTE
Excerpt: PRMT5 Cell Target Engagement (TE) Assay
The PRMT5 TE assay is a biomarker assay for identifying compounds that inhibit symmetric dimethylation of arginine (SDMA) of PRMT5 substrates. This assay detects symmetrically dimethylated nuclear proteins using high content imaging technology. Detection of the expression of symmetrically dimethylated nucleo proteins is through a mixture of primary rabbit monoclonal antibodies to SDMA (CST 13222), which in turn recognized by an Alexafluor 488 dye-conjugated anti-rabbit IgG secondary antibody. The IN Cell Analyzer 2200 measures nuclear Alexafluor 488 fluorescent dye intensity that is directly related to the level of expression of symmetrically dimethylated nuclear proteins at the single cell level. Nuclear AF488 dye intensities are compared to the mean value for DMSO treated cells […] to report percent of inhibition for each compound-treated well.
Each well of a BD falcon collagen coated black/clear bottom 384-well plate was seeded with 4000 MCF-7 cells and allowed to attach for 5 hours. Media from cell plate was removed at 0.5 mm above the bottom of the plate and replaced with 30 μL of fresh media containing 1.2× compounds in 0.1% DMSO. Cells were treated for 3 days in 37° C. CO2 incubator. On day 3, cells were fixed with Cytofix, permeablized with 0.4% Triton-X-100/Cytofix, and washed with D-PBS without Ca/Mg. Cells were blocked with Licor Odessey blocking reagent for one hour at room temperature, followed by incubation with anti-SDMA (1:1000) antibody at 4° C. overnight. 1° antibody was removed, followed by three washings with DPBS without Ca/Mg and 0.05% Tween20. Hoechst (5 μg/ml), Cell Mask deep stain (1:2000) and Alexa488-conjugated goat anti-rabbit IgG (2 μg/mL) was added for 1 hour at room temperature. A final washing step (three washes) was performed before sealing plate for imaging on In Cell Analyzer 2200. Images from analyzer were uploaded to Columbus (at WP) for image analysis. IC50 values were determined by 4 parameters robust fit of percent fluorescence units vs. (Log10) compound concentrations.

[2] = first IC50 of 7 parameters biphasic fit, read-out: Enzyme Methylation Assay IC50_1
[3] = second IC50 of 7 parameters biphasic fit, read-out: Enzyme Methylation Assay IC50_2

Chain of Full-length (FL)-PRMT5-MEP50 enzyme complex (O14744 whole entry): as the sequence (O14744 whole entry) above
Chain of Full-length (FL)-PRMT5-MEP50 enzyme complex (Q9BQA1 whole entry partner): as the sequence (Q9BQA1 whole entry partner) above

Structure (SMILES) | IC50 [1, 2] [µM] | IC50 [1, 3] [µM] | EC50 (PRMT5) [µM]
CC[C@H]1CN(C[C@@H](O)[C@@H]2Cc3ccccc3CN2)C(=O)c2cc(Cl)ncc21 (single isomer, unassigned) [Example 1] | 5.19 | ≥ 100 | ≥ 10
CC[C@H]1CN(C[C@@H](O)[C@@H]2Cc3ccccc3CN2)C(=O)c2cc(Cl)ncc21 (single isomer, unassigned) [Example 2] | 3.83 | ≥ 100 | ≥ 10
CC[C@H]1CN(C[C@@H](O)[C@@H]2Cc3ccccc3CN2)C(=O)c2cc(Cl)ncc21 (single isomer, unassigned) [Example 3] | 28.3 | ≥ 100 | ≥ 10
CC[C@H]1CN(C[C@@H](O)[C@@H]2Cc3ccccc3CN2)C(=O)c2cc(Cl)ncc21 (single isomer, unassigned) [Example 4] | 42.9 | ≥ 100 | ≥ 10

These reach a lower IC50 [1, 2]. Values come first.

IC50 [1, 2] [µM] | IC50 [1, 3] [µM] | EC50 (PRMT5) [µM] | Structure (SMILES)
0.00715 | 4.99 | 0.682 | CC[C@H]1CN(C[C@@H](O)[C@@H]2Cc3ccccc3CN2)C(=O)c2cc(NC3CCN(C(C)=O)CC3)ncc21 (single isomer, unassigned) [Example 7]
0.0968 | 29.1 | 3.24 | CC[C@H]1CN(C[C@@H](O)[C@@H]2Cc3ccccc3CN2)C(=O)c2cc(NC3CCN(C(C)=O)CC3)ncc21 (single isomer, unassigned) [Example 8]
0.00108 | 1.18 | 0.103 | CC[C@H]1CN(C[C@@H](O)[C@@H]2Cc3ccccc3CN2)C(=O)c2cc(NC3CCN(C(C)=O)CC3)ncc21 (single isomer, unassigned) [Example 9]
0.272 | 64.5 | ≥ 10 | CC[C@H]1CN(C[C@@H](O)[C@@H]2Cc3ccccc3CN2)C(=O)c2cc(NC3CCN(C(C)=O)CC3)ncc21 (single isomer, unassigned) [Example 10]
0.0569 | 9.23 | 3.89 | CC(=O)N1CCC(Nc2cc3c(cn2)C(C)(C)CN(C[C@@H](O)[C@@H]2Cc4ccccc4CN2)C3=O)CC1 (single isomer, unassigned) [Example 11]
0.00153 | 0.631 | 0.102 | CC(=O)N1CCC(Nc2cc3c(cn2)C(C)(C)CN(C[C@@H](O)[C@@H]2Cc4ccccc4CN2)C3=O)CC1 (single isomer, unassigned) [Example 12]
